Laboratory results taken from publication PMC6270258, “Diosgenone Synthesis, Anti-Malarial Activity and QSAR of Analogues of This Natural Product” (Molecules, 2013).
Where two headings read alike, the source gives them in different places.

What was measured:
[1] = system: Plasmodium berghei (ANKA strain); test: Peters' 4-day suppressive test in P. berghei-infected mice; type: in vivo, Plasmodium berghei in Balb/C mice; conditions: for reduction in parasitemia: 4 daily doses
Protocol: Antimalarial activity was expressed as the percentage of parasite multiplication inhibition.
Antimalarial activity was assessed in vivo in the P. berghei rodent malaria model according to Peters’ 4-day suppressive test in P. berghei-infected (ANKA strain), 5–6 week-old Balb/C mice (males and females) weighing 23 ± 5 g; parasitemia kinetics were evaluated following treatment [2]. […] The donor mice were anesthetized with a 5 mg/kg xylazine and 50 mg/kg ketamine cocktail; blood was then collected via intracardiac route and 100 uL of 5 × 10^6 P. berghei ANKA-parasitised parasitized erythrocytes per experimental mouse were inoculated. Mouse infection was checked one day later by thin smear blood test and Giemsa staining.

[2] = system: Plasmodium falciparum NF-54 strain; test: In vitro antiplasmodial activity, [3H]hypoxanthine incorporation, NF-54 strain; type: cell-based; conditions: 48 h, read-out: IC50 μM ± SD NF-54
Protocol: (§1) A 10 mg/mL stock solution was prepared. […] A 50 μL sample was extracted from this solution and adjusted to 1,000 μL with RPMI-1640 without hypoxanthine until a final 500 μg/mL concentration was reached. The P. falciparum FcB-2 (Colombia) and NF54 (The Netherlands) strains were used for assessing anti-malarial activity.
(§2) Trager and Jensen’s method was used for culturing strains [24, 25]. The methods described by Desjardins et al. [26] were used for evaluating the structural analogs’ in vitro antiplasmodial activity, with some modifications. […] 1.0 µCi/mL of [3H] hypoxanthine (MP Biomedicals, Santa Ana, CA, USA) was added to each well and the plates were then incubated for 48 h at 37 °C in 5% CO2, 5% O2 in a balanced N2 atmosphere. Parasite DNA was harvested and radioactivity was determined by automatic TDCR liquid scintillation counter plate (Chameleon, Hidex Oy, Finland). Experiments were repeated twice with two or three replicates each. A nonlinear regression sigmoidal dose-response (variable slope) model was used to estimate concentration inhibiting 50% growth (IC50) values for each derivative.

[3] = system: Plasmodium falciparum FCB-2 (chloroquine-resistant) strain; test: In vitro antiplasmodial activity, [3H]hypoxanthine incorporation, FCB-2 strain; type: cell-based; conditions: for RI (resistance index): IC50 FCB-2 (resistant strain)/IC50 NF-54 (sensitive strain); for antiplasmodial activity (in words): P. falciparum FCB-2 and NF-54 strains, compared to diosgenone or parent
Protocol: as §1, §2

[4] = Cytotoxicity, MTT colorimetric test; type: cell-based, human; conditions: human
Protocol: (§3) Steroidal derivatives’ cytotoxicity regarding the HepG2-A16 cell line was evaluated by colorimetric test using 3-(4,5-dimethylthiazolyl-2)-2,5-diphenyltetrazolium bromide (MTT), as described by Mosmann [28]. […] An aliquot of each derivative dilution (100 μL, 1,000, 100, 10 and 1 μg/mL) was then added to the wells in triplicate. […] The DMSO diluent agent was evaluated in complete medium and negative controls (untreated cells) were included. Absorbance was measured at 550 nm and statistical Prism software version 5.0 (GraphPad Software Inc., La Jolla, CA, USA) was used for calculating toxic concentration (CC50). Amphotericin B was used as positive control in this assay.

[5] = system: Plasmodium falciparum FCB-2 (chloroquine-resistant) strain; set-up: method as in doi:10.1016/S0040-4020(98)00632-2, PMID 11807967; conditions: reported earlier; cited from earlier work
[6] = system: HepG2-A16 human hepatoma cells; test: Cytotoxicity, MTT colorimetric test; type: cell-based; conditions: for SI (selectivity index): CC50 HepG2/IC50 parasite FCB-2
Protocol: as §3

[7] = P. falciparum NF-54 chloroquine-sensitive strain
[8] = Plasmodium falciparum, 48 h, P. falciparum FCB-2 chloroquine-resistant strain, 48 h, read-out: IC50 μM ± SD FCB-2

| SMILES | reduction of parasitemia ([1]; 5 mg/kg oral, second day of treatment) | IC50 [2] | IC50 ([3]; Plasmodium falciparum, 48 h, read-out: IC50 μM ± SD FCB-2) | IC50 ([3]; Plasmodium falciparum, read-out: IC50 in the FCB-2 strain) | in vivo effect on parasites (in words) ([1]; 100 mg/kg oral) | parasitaemia (parasitized erythrocytes) ([1]; 100 mg/kg oral, fifth day post treatment, vehicle controls 36.0%) | IC50 [2, 7] | CC50 at 48 h [4] | antiplasmodial activity against FcB-2 chloroquine-resistant strains (in words) [5] | IC50 [3, 8] | SI (selectivity index) [6] | RI (resistance index) [3] | IC50 ([3]; P. falciparum FCB-2 chloroquine-resistant strain, 48 h, read-out: IC50 μM ± SD FCB-2) | reduction in parasitemia ([1]; 100 mg/kg oral) | melting point | cytotoxicity (in words) [6] | antiplasmodial activity (in words) [3] |
| --- | --- | --- | --- | --- | --- | --- | --- | --- | --- | --- | --- | --- | --- | --- | --- | --- | --- |
| CCN(CC)CCCC(C)Nc1ccnc2cc(Cl)ccc12 (stereo not drawn) [CQ, chloroquine, reference compound] | 100.0% | 0.02 ± 0.005 µM | 0.157 ± 0.01 µM | 0.158 µM |  |  |  |  |  |  |  |  |  |  |  |  |  |
| C[C@@H]1CC[C@@]2(OC1)O[C@H]1C[C@H]3[C@@H]4CCC5=CC(=O)CC[C@]5(C)[C@H]4CC[C@]3(C)[C@H]1[C@@H]2C [Compound 2, (25R)-4-Spirosten-3-one] |  |  |  |  | no decrease in the amount of parasites | 50.0% | 35.4 ± 2.2 µM | 265 µM | have antiplasmodial activity | 27.9 ± 5.5 µM |  |  |  |  |  |  |  |
| CC(=O)O[C@H]1CC2C3CCC4=CC(=O)CC[C@]4(C)C3CC[C@]2(C)[C@H]1[C@H](C)C(=O)CC[C@@H](C)CO (stereo partly drawn) [Compound 3] |  |  |  |  |  |  | 33 ± 0.8 µM | 60 µM | have antiplasmodial activity | 21.4 µM | 2.8 | 0.6 | 21.35 ± 0.2 µM |  |  |  |  |
| C[C@@H](CO)CCC(=O)[C@@H](C)[C@H]1[C@@H](O)CC2C3CCC4=CC(=O)CC[C@]4(C)C3CC[C@@]21C (stereo partly drawn) [Compound 4] |  |  |  |  |  |  | 248 ± 5.3 µM | 2150 µM | have antiplasmodial activity | 223 ± 12.3 µM | 9.6 | 0.9 |  |  |  |  |  |
| CC1CCC2(OC1)OC1(O)CC3C4CCC56OC5C(=O)CCC6(C)C4CCC3(C)C1C2C [Compound 14, (25R)-4,5-Epoxy-spirostan-16α-hydroxy-3-one] |  |  |  |  |  |  | 8.5 ± 2.3 µM | 153 µM |  | 10.1 ± 1.3 µM | 15.2 | 1.2 |  | 36.7% | 145 to 147 °C |  |  |
| C[C@@H]1CC[C@@]2(OC1)O[C@H]1C[C@H]3[C@@H]4CC5OC56CC(O)CC[C@]6(C)[C@H]4CC[C@]3(C)[C@H]1[C@@H]2C (stereo partly drawn) [Compound 17, (25R)-5,6-Epoxy-spirostan-3-ol] |  |  |  |  |  |  | 184 µM | > 2050 µM |  | > 409 µM |  | 2.2 |  |  | 97 to 99 °C | nor toxic | neither active |
| C[C@@H]1CC[C@@]2(OC1)O[C@H]1C[C@H]3[C@@H]4CC(=O)C5=CC(=O)CC[C@]5(C)[C@H]4CC[C@]3(C)[C@H]1[C@@H]2C [Compound 18, (25R)-4-Spirosten-3,6-dione] |  |  |  |  |  |  | 9.8 ± 1 µM | 192 µM |  | 11.3 ± 1.6 µM | 16.9 | 1.2 |  | 35.0% | 200 to 202 °C |  | more active than diosgenone |
| CC(=O)OC1C[C@H]2[C@@H]3CCC4=CC(O)CC[C@]4(C)[C@H]3CC[C@]2(C)[C@H]1[C@H](C)C(O)CC[C@@H](C)CO (stereo partly drawn) [Compound 24, (25R)-16-Acetoxy-4-cholesten-3,22,26-triol] |  |  |  |  |  |  | 101 ± 9.9 µM | 306 µM |  | 95 ± 7.3 µM | 3.2 | 0.9 |  |  | 144 to 146 °C |  |  |
